{"source": "patent US8546608B2", "about": "“Proteasome inhibitors and methods of using the same” (Cephalon, Inc., priority 2003, dated 2013)", "note": "pIC50: −log10 of the molar value."}
{"molecular_target": "T1, 20S Human Erythrocyte Proteasome (HEP) (Homo sapiens, UniProt P20618+P28074)", "T1 construct": "20S Human Erythrocyte Proteasome (HEP), purchased from Immatics Biotechnologies Inc; purchased Immatics Biotechnologies Inc., Tübingen, Germany; host or cells: human erythrocytes (natural source)", "assay": "Chymotrypsin-like activity of 20S Human Erythrocyte Proteasome (HEP), IC50 determination", "format": "biochemical", "conditions": "assay of Example C, inhibition of HEP", "experimental": "Assay for Chymotrypsin-like Activity of 20S Human Erythrocyte Proteasome (HEP)\nProteasome chymotrypsin-like activity of compounds of the invention was assayed according to the following procedure.\nIn 96-well microtiter plates, 20S Human Erythrocyte Proteasome (HEP), purchased from Immatics Biotechnologies Inc., Tübingen, Germany was plated at 0.2 μg/mL (about 0.6 nM catalytic sites) in 0.04% SDS 20 mM Tris buffer. A fluorimetric substrate Suc-LLVY-AMC (succinyl-Leu-Leu-Val-Tyr-7-amido-4-methylcoumarin), purchased from Sigma Inc., St. Louis, Mo., USA was added to a final concentration of 100 μM from a stock solution of 10 mM in dimethylsulfoxide. Reaction volumes were 100 μl per well. […] Proteasome activity was determined under conditions in which substrate hydrolysis increased linearly with time and the change in fluorescence signal was proportional to the concentration of free AMC.\nDetermination of IC50 Values for HEP and α-Chymotrypsin Inhibitors\nInhibition of the chymotrypsin-like activity of HEP and of bovine α-chymotrypsin was determined by incubating the enzyme with various concentrations of putative inhibitors for 15 minutes at 37° C. (or room temperature for α-chymotrypsin) prior to the addition of substrate. Each experimental condition was evaluated in triplicate, and replicate experiments were performed for the inhibitors described herein."}
{"smiles": "C=CCCCCCCCC(=O)N[C@@H](CCCNC(=N)N[N+](=O)[O-])C(=O)N[C@@H](CC(C)C)B1O[C@@H]2C[C@@H]3C[C@@H](C3(C)C)[C@]2(C)O1", "note": "[D.3.68, Dec-9-enamide,N-[(1S)-1-[[[(1R)-1-[(3aS,4S,6S,7aR)-hexahydro-3a,5,5-trimethyl-4,6-methano-1,3,2-benzodioxaborol-2-yl]-3-methylbutyl]amino]carbonyl]-4-[[imino(nitroamino)methyl]amino]butyl]]", "pIC50": "> 8.00"}
{"smiles": "CC(C)C[C@H](NC(=O)[C@H](CCCNC(=N)N[N+](=O)[O-])NC(=O)COc1ccc(Br)cc1)B1O[C@@H]2C[C@@H]3C[C@@H](C3(C)C)[C@]2(C)O1", "note": "[D.3.80, 2-(4-Bromophenoxy)-acetamide,N-[(1S)-1-[[[(1R)-1-[(3aS,4S,6S,7aR)-hexahydro-3a,5,5-trimethyl-4,6-methano-1,3,2-benzodioxaborol-2-yl]-3-methylbutyl]amino]carbonyl]-4-[[imino(nitroamino)methyl]amino]butyl]]", "pIC50": "> 8.00"}
{"smiles": "CCCCCCCCCC(=O)N[C@@H](CCCNC(=N)N[N+](=O)[O-])C(=O)N[C@@H](CC(C)C)B1O[C@H](C2CCCCC2)[C@@H](C2CCCCC2)O1", "note": "[F.1, Decanamide, N-[(1S)-1-[[[(1R)-1-[(4R,5R)-4,5-dicyclohexyl-[1,3,2]dioxaborolan-2-yl]-3-methylbutyl]amino]carbonyl]-4-[[imino(nitroamino)methyl]amino]butyl]-]", "pIC50": "> 8.00"}
{"smiles": "COC(=O)CCCC(=O)N[C@@H](CCCNC(=N)N[N+](=O)[O-])C(=O)N[C@@H](CC(C)C)B(O)O", "note": "[E.1.10, Boronic acid, [(1R)-1-[[(2S)-5-[[imino(nitroamino)methyl]amino]-2-[[4-(methoxycarbonyl)butanoyl]amino]-1-oxopentyl]amino]-3-methylbutyl]]", "pIC50": "> 8.00"}
{"smiles": "CC(C)C[C@H](NC(=O)[C@H](CCCNC(=N)N[N+](=O)[O-])NC(=O)CN1CCCCC1)B1O[C@@H]2C[C@@H]3C[C@@H](C3(C)C)[C@]2(C)O1", "note": "[D.1.9, 2-Piperidin-1-yl-acetamide,N-[(1S)-1-[[[(1R)-1-[(3aS,4S,6S,7aR)-hexahydro-3a,5,5-trimethyl-4,6-methano-1,3,2-benzodioxaborol-2-yl]-3-methylbutyl]amino]carbonyl]-4-[[imino(nitroamino)methyl]amino]butyl]]", "pIC50": "> 7.00"}
{"smiles": "CCCCN1CCC(CCCC(=O)N[C@@H](CCCNC(=N)N[N+](=O)[O-])C(=O)N[C@@H](CC(C)C)B(O)O)CC1", "note": "[E.1.14, Boronic acid, [(1R)-1-[[(2S)-5-[[imino(nitroamino)methyl]amino]-2-[(1-oxo-4-(1-butylpiperidin-4-yl)butyl)amino]-1-oxopentyl]amino]-3-methylbutyl]]", "pIC50": "> 8.00"}
{"smiles": "CC(C)C[C@H](NC(=O)[C@H](CCCNC(=N)N[N+](=O)[O-])NC(=O)CCCCc1cccs1)B1O[C@@H]2C[C@@H]3C[C@@H](C3(C)C)[C@]2(C)O1", "note": "[D.3.115, 5-Thiophen-2-yl-pentanamide,N-[(1S)-1-[[[(1R)-1-[(3aS,4S,6S,7aR)-hexahydro-3a,5,5-trimethyl-4,6-methano-1,3,2-benzodioxaborol-2-yl]-3-methylbutyl]amino]carbonyl]-4-[[imino(nitroamino)methyl]amino]butyl]]", "pIC50": "> 8.00"}
{"smiles": "CCCCCCCc1ccc(C(=O)N[C@@H](CCCNC(=N)N[N+](=O)[O-])C(=O)N[C@@H](CC(C)C)B2O[C@@H]3C[C@@H]4C[C@@H](C4(C)C)[C@]3(C)O2)cc1", "note": "[D.3.130, 4-Heptylbenzamide,N-[(1S)-1-[[[(1R)-1-[(3aS,4S,6S,7aR)-hexahydro-3a,5,5-trimethyl-4,6-methano-1,3,2-benzodioxaborol-2-yl]-3-methylbutyl]amino]carbonyl]-4-[[imino(nitroamino)methyl]amino]butyl]]", "pIC50": "> 8.00"}
{"smiles": "CCCCCCCC/C=C/C(=O)N[C@@H](CCCNC(=N)N[N+](=O)[O-])C(=O)N[C@@H](CC(C)C)B1O[C@@H]2C[C@@H]3C[C@@H](C3(C)C)[C@]2(C)O1", "note": "[D.3.69, (E)-Undec-2-enoic acid amide,N-[(1S)-1-[[[(1R)-1-[(3aS,4S,6S,7aR)-hexahydro-3a,5,5-trimethyl-4,6-methano-1,3,2-benzodioxaborol-2-yl]-3-methylbutyl]amino]carbonyl]-4-[[imino(nitroamino)methyl]amino]butyl]]", "pIC50": "> 8.00"}
{"smiles": "CC(C)C[C@H](NC(=O)[C@H](CCCNC(=N)N[N+](=O)[O-])NC(=O)CC1CC2CCC1C2)B1O[C@@H]2C[C@@H]3C[C@@H](C3(C)C)[C@]2(C)O1", "note": "(stereo partly drawn) [D.3.89, 2-(Bicyclo[2.2.1]hept-2-yl)acetamide,N-[(1S)-1-[[[(1R)-1-[(3aS,4S,6S,7aR)-hexahydro-3a,5,5-trimethyl-4,6-methano-1,3,2-benzodioxaborol-2-yl]-3-methylbutyl]amino]carbonyl]-4-[[imino(nitroamino)methyl]amino]butyl]]", "pIC50": "> 8.00"}
{"smiles": "CCCCC(C)CCC(=O)N[C@@H](CCCNC(=N)N[N+](=O)[O-])C(=O)N[C@@H](CC(C)C)B1O[C@@H]2C[C@@H]3C[C@@H](C3(C)C)[C@]2(C)O1", "note": "(mixture of isomers) [D.3.87, (RS)-4-Methyloctanamide,N-[(1S)-1-[[[(1R)-1-[(3aS,4S,6S,7aR)-hexahydro-3a,5,5-trimethyl-4,6-methano-1,3,2-benzodioxaborol-2-yl]-3-methylbutyl]amino]carbonyl]-4-[[imino(nitroamino)methyl]amino]butyl]]", "pIC50": "> 8.00"}
{"smiles": "CCCCC(CC)CCC(=O)N[C@@H](CCCNC(=N)N[N+](=O)[O-])C(=O)N[C@@H](CC(C)C)B1O[C@@H]2C[C@@H]3C[C@@H](C3(C)C)[C@]2(C)O1", "note": "(mixture of isomers) [D.3.78, (RS)-4-Ethyloctanamide,N-[(1S)-1-[[[(1R)-1-[(3aS,4S,6S,7aR)-hexahydro-3a,5,5-trimethyl-4,6-methano-1,3,2-benzodioxaborol-2-yl]-3-methylbutyl]amino]carbonyl]-4-[[imino(nitroamino)methyl]amino]butyl]]", "pIC50": "> 8.00"}
{"smiles": "Cc1ccc(CSCCC(=O)N[C@@H](CCCNC(=N)N[N+](=O)[O-])C(=O)N[C@@H](CC(C)C)B2O[C@@H]3C[C@@H]4C[C@@H](C4(C)C)[C@]3(C)O2)cc1", "note": "[D.3.76, 3-[(4-methylbenzyl)sulfanyl]propanamide,N-[(1S)-1-[[[(1R)-1-[(3aS,4S,6S,7aR)-hexahydro-3a,5,5-trimethyl-4,6-methano-1,3,2-benzodioxaborol-2-yl]-3-methylbutyl]amino]carbonyl]-4-[[imino(nitroamino)methyl]amino]butyl]]", "pIC50": "> 8.00"}
{"smiles": "CC(C)=CCC[C@H](C)CC(=O)N[C@@H](CCCNC(=N)N[N+](=O)[O-])C(=O)N[C@@H](CC(C)C)B1O[C@@H]2C[C@@H]3C[C@@H](C3(C)C)[C@]2(C)O1", "note": "[D.3.77, (3S)-3,7-Dimethyl-oct-6-enoic acid amide,N-[(1S)-1-[[[(1R)-1-[(3aS,4S,6S,7aR)-hexahydro-3a,5,5-trimethyl-4,6-methano-1,3,2-benzodioxaborol-2-yl]-3-methylbutyl]amino]carbonyl]-4-[[imino(nitroamino)methyl]amino]butyl]]", "pIC50": "> 8.00"}
